# In patent US20060069132A1, “Azolecarboxamide herbicides” (priority 2004, published 2006):
# Key:
# barnyardgrass [1] = test: Test B pre-/postemergence herbicide test; format: in vivo, Echinochloa crus-galli; settings: for Plant response rating, Barnyardgrass: 500 g ai/ha
# Outline: (§1)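 Flooded paddy rice and barnyardgrass were treated at the 2-leaf stage; upland plantings received compound either on sown seed or on 1- to 4-leaf seedlings. All were kept 13–15 days in a greenhouse and scored visually, 0–100, relative to untreated plants.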
# Surinam grass = test: Test B pre-/postemergence herbicide test; format: in vivo, Urochloa decumbens
# Outline: (§2)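 Plants compared with untreated controls 13–15 days post-treatment and given a visual 0–100 injury score. Applications: preemergence to seeds; postemergence at 1- to 4-leaf (2–18 cm); paddy species flooded, 2-leaf stage. Vehicle non-phytotoxic, surfactant included.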
# cocklebur = test: Test B pre-/postemergence herbicide test; format: in vivo, Xanthium strumarium
# Outline: as §1
# corn = test: Test B pre-/postemergence herbicide test; format: in vivo, Zea mays
# Outline: as §2
# large crabgrass = test: Test B pre-/postemergence herbicide test; format: in vivo, Digitaria sanguinalis
# Outline: as §2
# giant foxtail = test: Test B pre-/postemergence herbicide test; format: in vivo, Setaria faberi
# Outline: as §2
# lambsquarters = test: Test B pre-/postemergence herbicide test; format: in vivo, Chenopodium album
# Outline: as §2
# morningglory = test: Test B pre-/postemergence herbicide test; format: in vivo, Ipomoea coccinea; settings: for Plant response rating, Morningglory: 500 g ai/ha
# Outline: as §1
# pigweed = test: Test B pre-/postemergence herbicide test; format: in vivo, Amaranthus retroflexus
# Outline: as §2
# velvetleaf = test: Test B pre-/postemergence herbicide test; format: in vivo, Abutilon theophrasti
# Outline: as §2
# blackgrass = test: Test B postemergence herbicide test; format: in vivo, Alopecurus myosuroides; settings: scale 0 (no effect) to 100 (complete control)
# Outline: (§3)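 After treating 2-leaf paddy plants or 2–18 cm postemergence plants (1 to 4 leaves) with formulated chemical, researchers kept them in a greenhouse for 13–15 days. Effects were judged visually versus controls: 0 indicates none, 100 total control.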
# wheat = test: Test B postemergence herbicide test; format: in vivo, Triticum aestivum; design: key to Wheat plant response rating: 0 = no effect, 100 = complete control; settings: scale 0 (no effect) to 100 (complete control)
# Outline: (§4)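 Formulated test chemicals went onto postemergence plants measuring 2 to 18 cm, at one to four leaves. For the paddy assay, species had reached two leaves. Scoring took place 13–15 days later by eye, relative to untreated plants, using 0 for no effect up to 100 for full control.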
# wild oat = test: Test B postemergence herbicide test; format: in vivo, Avena fatua; settings: scale 0 (no effect) to 100 (complete control)
# Outline: as §4
# rice [2] = test: Test B flooded paddy test; format: in vivo, Oryza sativa; settings: 1000 g ai/ha, visual rating, scale 0 to 100 (0 no effect, 100 complete control), 13 to 15 days
# Outline: as §4
# [3] = test system: small flower umbrella sedge; test: Test B flooded paddy test; format: in vivo, Cyperus difformis; settings: 1000 g ai/ha, visual rating, scale 0 to 100 (0 no effect, 100 complete control), 13 to 15 days
# Outline: as §3
# ducksalad [4] = test: Test B flooded paddy test; format: in vivo, Heteranthera limosa; settings: 1000 g ai/ha, visual rating, scale 0 to 100 (0 no effect, 100 complete control), 13 to 15 days
# Outline: as §3
# barnyardgrass [5] = test: Test B flooded paddy test; format: in vivo, Echinochloa crus-galli; settings: 1000 g ai/ha, visual rating, scale 0 to 100 (0 no effect, 100 complete control), 13 to 15 days
# Outline: as §3
# rice [6] = test: Test C flooded paddy test; format: in vivo, Oryza sativa
# Experimental: (§5) At the same time, plants selected from these crop and weed species and also winter barley (Hordeum vulgare L.), blackgrass (Alopecurus myosuroides Huds.), canarygrass (Phalaris minor Retz.), chickweed (Stellaria media (L.) Vill.), downy bromegrass (Bromus tectorum L.), green foxtail (Setaria viridis (L.) Beauv.), Italian ryegrass (Lolium multiflorum Lam.), wheat (Triticum aestivum L.), wild oat (Avenafatua L.) and windgrass (Apera spica-venti (L.) Beauv.) were treated with postemergence applications of some of the test chemicals formulated in the same manner. Plants ranged in height from 2 to 18 cm (1- to 4-leaf stage) for postemergence treatments. Plant species in the flooded paddy test consisted of rice (Oryza sativa), smallflower umbrella sedge (Cyperus difformis L.), ducksalad (Heteranthera limosa (Sw.) Willd.) and barnyardgrass (Echinochloa crus-galli (L.) Beauv.) grown to the 2-leaf stage for testing. Treated plants and controls were maintained in a greenhouse for 12 to 14 days, after which time all species were compared to controls and visually evaluated. Plant response ratings, summarized in Table C, are based on a scale of 0 to 100 where 0 is no effect and 100 is complete control. A dash (-) response means no test result.
# [7] = test system: smallflower umbrella sedge; test: Test C flooded paddy test; format: in vivo, Cyperus difformis
# Experimental: as §5
# ducksalad [8] = test: Test C flooded paddy test; format: in vivo, Heteranthera limosa
# Experimental: as §5
# barnyardgrass [9] = test: Test C flooded paddy test; format: in vivo, Echinochloa crus-galli
# Experimental: as §5
# [10] = visual rating 0-100, 0 no effect, 100 complete control, preemergence
# [11] = Postemergence, visual rating after 13 to 15 days, scale 0 (no effect) to 100 (complete control)
# [12] = postemergence, 125 g ai/ha, visual rating, scale 0 (no effect) to 100 (complete control)
# [13] = 500 g ai/ha, visual rating 0-100, 0 no effect, 100 complete control, preemergence
# [14] = Postemergence, 500 g ai/ha, visual rating after 13 to 15 days, scale 0 (no effect) to 100 (complete control)
# [15] = preemergence, 125 g ai/ha, 0 to 100 scale, 0 is no effect, 100 is complete control
# [16] = Postemergence, 500 g ai/ha, visual rating after 13 to 15 days
# [17] = postemergence, 125 g ai/ha, visual rating
# [18] = 62 g ai/ha, scale 0 to 100 (0 no effect, 100 complete control)
# [19] = 125 g ai/ha, scale of 0 to 100, 0 is no effect, 100 is complete control
# [20] = 250 g ai/ha, scale of 0 to 100, 0 is no effect, 100 is complete control
# [21] = 500 g ai/ha, visual rating after 12 to 14 days, scale 0 to 100 (0 no effect, 100 complete control)
smiles,measurement,setting,value
CON=C(C)c1cccc(NC(=O)c2cc(C(C)(C)C)nn2C)c1 [Compound 106],"Plant response rating, Barnyardgrass",barnyardgrass [1]; [10],70
same,"Plant response rating, Barnyardgrass",barnyardgrass [1]; [11],0
same,Barnyardgrass plant response rating,barnyardgrass [1]; [12],0
same,"Plant response rating, Surinam Grass",Surinam grass; [13],20
same,"Plant response rating, Surinam Grass",Surinam grass; [14],10
same,Surinam Grass plant response rating,Surinam grass; [12],10
same,"Plant response rating, Surinam Grass",Surinam grass; [15],0
same,"Plant response rating, Cocklebur",cocklebur; [13],0
same,"Plant response rating, Cocklebur",cocklebur; [14],50
same,Cocklebur plant response rating,cocklebur; [12],20
same,"Plant response rating, Cocklebur",cocklebur; [15],0
same,"Plant response rating, Corn",corn; [13],0
same,"Plant response rating, Corn",corn; [14],10
same,Corn plant response rating,corn; [12],10
same,"Plant response rating, Corn",corn; [15],0
same,"Plant response rating, Crabgrass, Large",large crabgrass; [13],100
same,"Plant response rating, Crabgrass, Large",large crabgrass; [14],10
same,"Crabgrass, Large plant response rating",large crabgrass; [12],0
same,"Plant response rating, Crabgrass, Large",large crabgrass; [15],90
same,"Plant response rating, Foxtail, Giant",giant foxtail; [13],40
same,"Plant response rating, Foxtail, Giant",giant foxtail; [14],0
same,"Foxtail, Giant plant response rating",giant foxtail; [12],0
same,"Plant response rating, Foxtail, Giant",giant foxtail; [15],10
same,"Plant response rating, Lambsquarters",lambsquarters; [13],100
same,"Plant response rating, Lambsquarters",lambsquarters; [14],90
same,Lambsquarters plant response rating,lambsquarters; [12],50
same,"Plant response rating, Lambsquarters",lambsquarters; [15],0
same,"Plant response rating, Morningglory",morningglory; [10],10
same,"Plant response rating, Morningglory",morningglory; [11],10
same,Morningglory plant response rating,morningglory; [12],10
same,"Plant response rating, Pigweed",pigweed; [13],70
same,"Plant response rating, Pigweed",pigweed; [14],20
same,Pigweed plant response rating,pigweed; [12],10
same,"Plant response rating, Pigweed",pigweed; [15],0
same,"Plant response rating, Velvetleaf",velvetleaf; [13],0
same,"Plant response rating, Velvetleaf",velvetleaf; [14],20
same,Velvetleaf plant response rating,velvetleaf; [12],0
same,"Plant response rating, Velvetleaf",velvetleaf; [15],0
same,"Plant response rating, Blackgrass",blackgrass; [16],0
same,Blackgrass plant response rating,blackgrass; [17],0
same,"Plant response rating, Wheat",wheat; [16],0
same,Wheat plant response rating,wheat; [17],0
same,"Plant response rating, Oat, Wild",wild oat; [16],20
same,"Oat, Wild plant response rating",wild oat; [17],10
same,Rice plant response rating,rice [2],0
same,"Sedge, Umbrella plant response rating",[3],90
same,Ducksalad plant response rating,ducksalad [4],80
same,Barnyardgrass plant response rating,barnyardgrass [5],0
same,Rice plant response rating,rice [6]; [18],0
same,Rice plant response rating,rice [6]; [19],0
same,Rice plant response rating,rice [6]; [20],0
same,"Plant response rating, Rice",rice [6]; [21],20
same,"Sedge, Umbrella plant response rating",[7]; [18],0
same,"Sedge, Umbrella plant response rating",[7]; [19],0
same,"Sedge, Umbrella plant response rating",[7]; [20],30
same,"Plant response rating, Sedge, Umbrella",[7]; [21],80
same,Ducksalad plant response rating,ducksalad [8]; [18],0
same,Ducksalad plant response rating,ducksalad [8]; [19],0
same,Ducksalad plant response rating,ducksalad [8]; [20],0
same,"Plant response rating, Ducksalad",ducksalad [8]; [21],0
same,Barnyardgrass plant response rating,barnyardgrass [9]; [18],0
same,Barnyardgrass plant response rating,barnyardgrass [9]; [19],0
same,Barnyardgrass plant response rating,barnyardgrass [9]; [20],0
same,"Plant response rating, Barnyardgrass",barnyardgrass [9]; [21],0
